This is an account of results in ChEMBL document CHEMBL5291721, “A preclinical secondary pharmacology resource illuminates target-adverse drug reaction associations of marketed drugs” (Nat Commun, 2023).

For one experiment, the target named is T1, Adenosine receptor A1 (Homo sapiens, UniProt P30542).
T1 sequence (P30542 whole entry): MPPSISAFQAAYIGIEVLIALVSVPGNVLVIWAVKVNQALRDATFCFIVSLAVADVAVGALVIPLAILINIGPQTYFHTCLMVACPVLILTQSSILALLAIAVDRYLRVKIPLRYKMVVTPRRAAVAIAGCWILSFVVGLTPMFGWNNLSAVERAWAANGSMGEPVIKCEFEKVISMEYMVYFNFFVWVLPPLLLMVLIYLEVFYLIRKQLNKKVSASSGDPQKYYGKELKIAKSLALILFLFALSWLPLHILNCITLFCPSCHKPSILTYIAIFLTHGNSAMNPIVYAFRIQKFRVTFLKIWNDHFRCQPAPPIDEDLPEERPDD

Experiment [1] concerns the target T2, Muscarinic acetylcholine receptor M2 (Homo sapiens, UniProt P08172).
T2 sequence (P08172 whole entry): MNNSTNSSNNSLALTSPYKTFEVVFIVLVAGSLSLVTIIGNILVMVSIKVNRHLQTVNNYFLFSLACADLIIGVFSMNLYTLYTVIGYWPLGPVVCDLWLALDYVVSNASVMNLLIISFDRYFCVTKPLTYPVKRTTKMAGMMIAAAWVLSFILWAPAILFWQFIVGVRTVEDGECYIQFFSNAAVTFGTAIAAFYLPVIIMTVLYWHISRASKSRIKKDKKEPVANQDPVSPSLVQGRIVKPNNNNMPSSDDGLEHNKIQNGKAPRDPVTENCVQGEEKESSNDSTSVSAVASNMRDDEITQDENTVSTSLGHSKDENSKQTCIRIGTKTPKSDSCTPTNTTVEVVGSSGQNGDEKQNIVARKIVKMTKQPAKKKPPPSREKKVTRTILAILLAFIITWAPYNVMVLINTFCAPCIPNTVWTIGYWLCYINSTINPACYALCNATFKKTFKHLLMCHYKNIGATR
The class given is functional, cell-based.

A further experiment deals with T3, Progesterone receptor (Homo sapiens, UniProt P06401).
T3 sequence (P06401 whole entry): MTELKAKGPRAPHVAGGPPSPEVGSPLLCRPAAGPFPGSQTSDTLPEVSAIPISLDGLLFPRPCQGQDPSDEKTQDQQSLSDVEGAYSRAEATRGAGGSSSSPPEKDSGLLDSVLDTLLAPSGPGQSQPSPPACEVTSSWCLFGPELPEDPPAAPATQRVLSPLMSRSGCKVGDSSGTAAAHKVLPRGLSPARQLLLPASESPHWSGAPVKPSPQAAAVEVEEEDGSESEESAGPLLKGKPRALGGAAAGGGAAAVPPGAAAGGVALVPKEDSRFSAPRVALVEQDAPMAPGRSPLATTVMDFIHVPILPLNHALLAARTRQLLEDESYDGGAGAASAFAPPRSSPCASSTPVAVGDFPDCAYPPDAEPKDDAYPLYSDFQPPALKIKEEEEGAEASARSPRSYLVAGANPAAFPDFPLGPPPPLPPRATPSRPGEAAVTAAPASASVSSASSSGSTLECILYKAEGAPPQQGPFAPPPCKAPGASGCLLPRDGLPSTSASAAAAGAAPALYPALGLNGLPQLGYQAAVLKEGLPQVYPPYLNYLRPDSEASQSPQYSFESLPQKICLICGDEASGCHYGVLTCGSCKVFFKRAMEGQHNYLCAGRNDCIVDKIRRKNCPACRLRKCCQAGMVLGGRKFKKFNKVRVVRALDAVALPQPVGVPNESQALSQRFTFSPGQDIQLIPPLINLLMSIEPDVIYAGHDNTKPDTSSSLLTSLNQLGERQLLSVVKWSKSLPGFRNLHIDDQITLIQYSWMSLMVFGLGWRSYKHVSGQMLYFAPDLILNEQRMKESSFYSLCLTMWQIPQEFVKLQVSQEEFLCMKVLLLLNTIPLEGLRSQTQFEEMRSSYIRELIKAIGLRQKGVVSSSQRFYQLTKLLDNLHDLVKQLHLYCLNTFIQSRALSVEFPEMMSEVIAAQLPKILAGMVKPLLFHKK
It is filed as functional.

Another experiment addresses Histamine H2 receptor (Homo sapiens, UniProt P25021). It is filed as functional, cell-based.
The next experiment addresses T4, B2 bradykinin receptor (Homo sapiens, UniProt P30411).
T4 sequence (P30411 whole entry): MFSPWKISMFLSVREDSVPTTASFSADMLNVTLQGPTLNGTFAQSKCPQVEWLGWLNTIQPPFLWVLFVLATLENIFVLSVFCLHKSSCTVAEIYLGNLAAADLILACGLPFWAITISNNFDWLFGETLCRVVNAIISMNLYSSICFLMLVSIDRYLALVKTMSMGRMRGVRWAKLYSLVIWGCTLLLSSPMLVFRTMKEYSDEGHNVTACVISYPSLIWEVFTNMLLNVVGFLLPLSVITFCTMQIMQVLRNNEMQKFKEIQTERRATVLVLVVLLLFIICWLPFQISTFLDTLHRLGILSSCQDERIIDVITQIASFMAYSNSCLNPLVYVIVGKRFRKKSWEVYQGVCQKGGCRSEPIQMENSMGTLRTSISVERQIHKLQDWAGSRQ

A further experiment has as its target Cannabinoid receptor 1 (Homo sapiens, UniProt P21554). The class given is functional, cell-based.
Also: assay procedure not described here.

Sequence of Cannabinoid receptor 1 (P21554 whole entry): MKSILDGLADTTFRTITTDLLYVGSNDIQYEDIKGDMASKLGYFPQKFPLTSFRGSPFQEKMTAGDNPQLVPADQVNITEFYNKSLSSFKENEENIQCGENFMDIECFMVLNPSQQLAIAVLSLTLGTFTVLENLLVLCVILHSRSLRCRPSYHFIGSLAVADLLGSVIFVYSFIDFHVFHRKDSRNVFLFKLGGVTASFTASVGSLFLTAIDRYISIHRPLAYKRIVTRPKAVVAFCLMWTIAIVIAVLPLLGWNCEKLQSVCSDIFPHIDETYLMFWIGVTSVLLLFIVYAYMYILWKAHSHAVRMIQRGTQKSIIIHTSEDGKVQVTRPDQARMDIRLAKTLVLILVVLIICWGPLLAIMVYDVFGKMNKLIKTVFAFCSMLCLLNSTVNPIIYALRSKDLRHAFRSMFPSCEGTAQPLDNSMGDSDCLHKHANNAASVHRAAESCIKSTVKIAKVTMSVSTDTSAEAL
Sequence of Histamine H2 receptor (P25021 whole entry): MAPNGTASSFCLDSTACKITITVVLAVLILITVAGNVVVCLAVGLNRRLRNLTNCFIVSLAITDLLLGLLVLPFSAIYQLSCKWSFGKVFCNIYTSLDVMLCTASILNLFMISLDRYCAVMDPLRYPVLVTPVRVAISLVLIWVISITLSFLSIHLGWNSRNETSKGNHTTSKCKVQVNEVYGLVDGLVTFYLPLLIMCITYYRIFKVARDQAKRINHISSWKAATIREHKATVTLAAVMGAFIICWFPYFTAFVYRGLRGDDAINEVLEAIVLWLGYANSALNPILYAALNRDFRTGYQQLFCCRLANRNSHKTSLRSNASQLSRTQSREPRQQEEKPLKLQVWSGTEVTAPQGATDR

As a reminder, the AC50 is the midpoint of the concentration-response curve, whichever way the signal moves. As for `O=C1c2cccc3c2[C@H](CCC3)CN1[C@@H]1CN2CCC1CC2` [PALONOSETRON], the AC50 (at Adenosine receptor A1; in experiment [1]; on Progesterone receptor; on Histamine H2 receptor; at B2 bradykinin receptor) was > 30 µM in each case.
For `Cc1cccc(C)c1NC(=O)CC12CCCN1CCC2` [PILSICAINIDE], the AC50 (at Adenosine receptor A1; in experiment [1]; at Progesterone receptor; at Cannabinoid receptor 1; at Histamine H2 receptor; on B2 bradykinin receptor) was > 30 µM each time.
On to `CC(C)c1cccc(C(C)C)c1O` [PROPOFOL], for which the AC50 (on Adenosine receptor A1; in experiment [1]; on Progesterone receptor; on Cannabinoid receptor 1) was > 30 µM in each case.
On to `C[N+]1(C)CCC(=C(c2ccccc2)c2ccccc2)CC1`, for which the AC50 is > 30 µM on Adenosine receptor A1, > 10 µM on Progesterone receptor, > 10 µM on Histamine H2 receptor and > 30 µM at B2 bradykinin receptor.
Take `CC(C)(Oc1ccc(CCNC(=O)c2ccc(Cl)cc2)cc1)C(=O)O` [BEZAFIBRATE]: the AC50 was > 10 µM at Adenosine receptor A1; > 10 µM in experiment [1]; > 10 µM at Progesterone receptor; > 30 µM at Cannabinoid receptor 1; > 10 µM on Histamine H2 receptor; > 10 µM at B2 bradykinin receptor.
As for `Cc1ccccc1N1C(=O)c2cc(S(N)(=O)=O)c(Cl)cc2NC1C` (stereo not given) [METOLAZONE], the AC50 (at Adenosine receptor A1; in experiment [1]; on Progesterone receptor; on Histamine H2 receptor; at B2 bradykinin receptor) was > 10 µM in each case.
For the compound `COC(=O)C1=C(C)NC(C)=C(C(=O)OCCN2CCN(C(c3ccccc3)c3ccccc3)CC2)C1c1cccc([N+](=O)[O-])c1` (stereo not given) [MANIDIPINE 6300], the concentration at half-maximal activity (AC50) (at Adenosine receptor A1; in experiment [1]; at Cannabinoid receptor 1; on Histamine H2 receptor; on B2 bradykinin receptor) was > 30 µM each time.
With `COc1ccc([C@@H]2CC(=O)c3c(O)cc(O)cc3O2)cc1O` [HESPERETIN], the AC50 at Adenosine receptor A1 is > 10 µM; in experiment [1], > 10 µM; at Progesterone receptor, > 10 µM; at Histamine H2 receptor, > 30 µM; at B2 bradykinin receptor, > 10 µM.
Regarding `C=C1c2cccc(O)c2C(=O)C2=C(O)[C@]3(O)C(=O)C(C(N)=O)=C(O)[C@@H](N(C)C)[C@@H]3[C@@H](O)[C@H]12` [METHACYCLINE], the AC50 at Adenosine receptor A1 was > 30 µM; in experiment [1] it was > 10 µM; at Progesterone receptor, > 30 µM; at Histamine H2 receptor, > 10 µM; on B2 bradykinin receptor, > 30 µM.
Turning to `CC(=O)O[C@]1(C(C)=O)CC[C@H]2[C@@H]3C=C(Cl)C4=CC(=O)[C@@H]5C[C@@H]5[C@]4(C)[C@H]3CC[C@@]21C` [CYPROTERONE ACETATE], the AC50 on Adenosine receptor A1 and at B2 bradykinin receptor was > 30 µM in each case.
In the case of `CN(Cc1cnc2nc(N)nc(N)c2n1)c1ccc(C(=O)N[C@@H](CCC(=O)O)C(=O)O)cc1` [METHOTREXATE], the half-maximal activity concentration (AC50) at Adenosine receptor A1 is > 30 µM; in experiment [1], > 10 µM; on Cannabinoid receptor 1 it was > 30 µM; at Histamine H2 receptor it was > 10 µM; on B2 bradykinin receptor, > 30 µM.
For the compound `C[C@@H]1C[C@H]2[C@@H]3C[C@H](F)C4=CC(=O)C=C[C@]4(C)[C@@]3(F)[C@@H](O)C[C@]2(C)[C@@]1(OC(=O)c1ccco1)C(=O)SCF` [FLUTICASONE FUROATE], the AC50 was > 10 µM on Adenosine receptor A1; > 10 µM in experiment [1]; > 30 µM at Cannabinoid receptor 1; > 10 µM on Histamine H2 receptor; > 10 µM at B2 bradykinin receptor.
As for `C[C@]12CCC(=O)C[C@@H]1CC[C@@H]1[C@@H]2CC[C@]2(C)[C@@H](O)CC[C@@H]12` [STANOLONE], the AC50 (at Adenosine receptor A1; in experiment [1]; on Histamine H2 receptor; at B2 bradykinin receptor) was > 30 µM each time.
For `CN[C@]1(c2ccccc2Cl)CCCCC1=O` [ESKETAMINE], the half-maximal activity concentration (AC50) (at Adenosine receptor A1; in experiment [1]; at Progesterone receptor; at Histamine H2 receptor; at B2 bradykinin receptor) was > 30 µM throughout.
Consider `CCOC(=O)c1ccc(N)cc1` [BENZOCAINE], for which the AC50 (at Adenosine receptor A1; in experiment [1]; at Progesterone receptor; at Histamine H2 receptor; on B2 bradykinin receptor) was > 10 µM in each case.
For the compound `CN(C)CCCN1c2ccccc2CCc2ccccc21` [IMIPRAMINE], the AC50 on Adenosine receptor A1 was > 30 µM; in experiment [1], > 10 µM; on Cannabinoid receptor 1 it was > 30 µM; at Histamine H2 receptor it was > 10 µM; at B2 bradykinin receptor it was > 30 µM.
Regarding `CN[C@@H](C)[C@@H](O)c1ccccc1` [PSEUDOEPHEDRINE], the half-maximal activity concentration (AC50) is > 30 µM at Adenosine receptor A1, > 10 µM in experiment [1], > 10 µM on Histamine H2 receptor and > 30 µM at B2 bradykinin receptor.
For `CCC[C@@H]1C[C@@H](C(=O)N[C@@H]([C@H]2O[C@H](SC)[C@H](O)[C@@H](O)[C@H]2O)[C@@H](C)O)N(C)C1` [LINCOMYCIN], the AC50 at Adenosine receptor A1 is > 10 µM; in experiment [1], > 10 µM; at Cannabinoid receptor 1, > 30 µM; at Histamine H2 receptor, > 10 µM; at B2 bradykinin receptor it was > 10 µM.
With `C/C=C(/C(=C/C)c1ccc(O)cc1)c1ccc(O)cc1` [DIENESTROL], the AC50 on Adenosine receptor A1 was > 30 µM; in experiment [1] it was > 10 µM; at Progesterone receptor it was > 30 µM; on Histamine H2 receptor it was > 10 µM; on B2 bradykinin receptor, > 10 µM.
For `Cc1ccccc1-n1c(CF)nc2ccc(N)cc2c1=O` [AFLOQUALONE], the AC50 at Adenosine receptor A1 was > 30 µM; in experiment [1], > 10 µM; at Progesterone receptor, > 30 µM; on Histamine H2 receptor it was > 30 µM; at B2 bradykinin receptor it was > 30 µM.
`O=C(O)c1cccnc1Nc1cccc(C(F)(F)F)c1` [NIFLUMIC ACID]: the AC50 (on Adenosine receptor A1; in experiment [1]; on Progesterone receptor; on Histamine H2 receptor; on B2 bradykinin receptor) was > 10 µM in each case.
As to `CN(C)Cc1nnc2n1-c1ccc(Cl)cc1C(c1ccccc1)=NC2` [ADINAZOLAM], the AC50 (at Adenosine receptor A1; in experiment [1]; on Progesterone receptor; at Histamine H2 receptor; at B2 bradykinin receptor) was > 10 µM each time.
For the compound `CC(Cc1cccc(C(F)(F)F)c1)NCCOC(=O)c1ccccc1` (stereo not given) [BENFLUOREX], the AC50 at Adenosine receptor A1, at Progesterone receptor, at Cannabinoid receptor 1, at Histamine H2 receptor and at B2 bradykinin receptor was > 30 µM in each case.
Regarding `COC(=O)[C@H]1[C@H]2C[C@@H]3c4[nH]c5cc(OC)ccc5c4CCN3C[C@H]2C[C@@H](OC(=O)c2cc(OC)c(OC)c(OC)c2)[C@@H]1OC` [RESERPINE], the AC50 on Adenosine receptor A1 was > 30 µM; in experiment [1] it was > 10 µM; at Progesterone receptor, > 10 µM; at Histamine H2 receptor it was > 30 µM; on B2 bradykinin receptor it was > 10 µM.
